{"source": "patent US20100240746A1", "about": "“STEREOISOMERS OF TRICYCLODECAN-9-YL-XANTHOGENATE” (LUMAVITA AG, priority 2007, published 2010)", "key": {"[1]": {"target": "T1, B. cereus PC-PLC (phosphatidylcholine-specific phospholipase C) (Bacillus cereus, UniProt P09598)", "T1 construct": "purchased Invitrogen", "T1 sequence (P09598 39-283 limits assumed)": "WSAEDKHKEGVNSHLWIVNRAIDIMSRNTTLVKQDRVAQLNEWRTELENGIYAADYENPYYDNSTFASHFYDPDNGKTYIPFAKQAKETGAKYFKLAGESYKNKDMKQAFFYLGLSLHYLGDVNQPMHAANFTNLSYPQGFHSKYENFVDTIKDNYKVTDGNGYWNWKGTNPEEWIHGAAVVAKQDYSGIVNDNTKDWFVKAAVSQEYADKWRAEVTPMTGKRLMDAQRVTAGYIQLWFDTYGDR", "assay": "Inhibition of phosphatidylcholine-specific phospholipase C (Amplex Red PC-PLC assay kit)", "type": "biochemical", "conditions": "30 min at 37° C., 0.2 U/mL PC-PLC solution, triplicate", "experimental": "The inhibitory activities of optically active potassium salts of (+)- and (−)-O-exo/C-exo-tricyclo [5.2.1.0^2,6]-dec-9-yl-xanthic acid 1A ((+)- and (−)-enantiomers 1A) against phosphatidylcholine-specific phospholipase C were evaluated, together with D609 and potassium salt of racemic O-exo/C-exo xanthic acid 1A (racemic 1A), using Amplex Red phosphatidylcholine-specific phospholipase C(PC-PLC) assay kit, which was obtained from Invitrogen (Calsbad, Calif.). D609 was obtained from Sigma Aldrich.\nAn Amplex Red stock solution (˜20 mM), a working reaction buffer, and a horseradish peroxidase stock solution (200 U/mL), a H2O2 working solution (20 mM), a choline oxidate stock solution (20 U/mL), an alkaline phosphatase stock solution (400 U/mL), and a B. cereus PC-PLC stock solution (10 U/mL) were prepared according to the instruction of the assay kit. The stock solution (100 mg/mL) for each test compound was also prepared by dissolving the compound in water 2 hr prior to the start of the experiment.\nA working Amplex Red/HRP/lecithin solution was prepared by adding 200 μL of Amplex Red reagent stock solution, 100 μL of HRP stock solution, 200 μL of alkaline phosphatase stock solution, 100 μL of choline oxidase stock solution, and 78 μL of the lecithin solution to […] of the working reaction buffer. PC-PLC solution (0.2 U/mL) was prepared by diluting the PC-PLC stock solution with the working reaction buffer to the desired concentration.\nThe test compound (25 μL) at a serious of concentrations was pipetted into a 96 well plate. For uninhibited PC-PLC controls and non-PC-PLC controls, 25 μL of water was added. After the addition of 50 μL of the Amplex Red/HRP/lecithin working solution, the reaction was initiated by adding 25 μL of PC-PLC solution to each well. […] After incubated for 30 min at 37° C., the reactions were measured with a fluorescence microplate reader using excitation at 550 nm and emission detection at 590 nm. The fluorescent data obtained were corrected for background fluorescence by subtracting the values obtained from the non-PC-PLC controls."}, "[2]": {"tested_on": "bovine papilloma virus type I (BPV-1)-transformed HEF (HEF-BPV)", "assay": "Inhibition of bovine papilloma virus, BPV-infected hamster embryo fibroblasts (HEF) cell proliferation assay", "type": "cell-based", "conditions": "HEF-BPV, 72 hr, 37° C., pH 6.8", "experimental": "Briefly, hamster embryo fibroblasts and bovine papilloma virus type I (BPV-1)-transformed HEF (HEF-BPV) were grown in Eagle's basal medium. […] and HEF cells were seeded in 96-well plates at a density of 0.5×10^6 cells per plate in DMEM cell culture medium containing 10% fetal calf serum at pH 6.8. The plates were then incubated in the presence of 5% CO2 in 100% humidity at 37° C. After 6 hr, the cell culture medium in the plates was exchanged with fresh DMEM cell culture medium containing test compounds at a series of concentrations. The plates were incubated at 37° C. for additional 72 hr. Cells in the plates were then washed with PBS, fixed with 3% formaldehyde solution containing 0.9% NaCl for 1 min, washed by water for 10 sec, and dried overnight. For detection, the plates were stained with crystal violet solution for 5 min at room temperature, washed 5 times with water, and dried at room temperature overnight. After adding ethanol/acetic acid (99:1, v/v, […]) to each well, the plates were measured at 595 nm using an ELISA reader."}, "[3]": {"tested_on": "HPV-31 specific DNA in HPV-31-infected CIN612 9E keratinocytes", "assay": "Short-term study, inhibition of HPV-31 specific DNA (Southern Blot)", "type": "cell-based, human papilloma virus", "conditions": "Human papillomavirus, Keratinocyte; at 32 μg/mL, 72 hrs", "experimental": "The inhibitory activities of optically active (−)-enantiomer 1A against human papilloma virus were evaluated using HPV-31-infected CIN612 9E keratinocytes (Meyers et al., Science 1992, 257, 971-973).\nEffect on HPV-31 specific DNA and RNA. HPV-31 infected cells (3×10^6) were dispensed into 14.5 cm dishes containing fresh E culture medium and 1×10^6 mitomycin C-treated J2 3T3 fibroblast feeders. After 6 hrs, fresh medium containing 0.85 g/L NaHCO3 and a test compound at a series of concentrations (0, 0.5, 1, 2, 4, 8, 16, and 32 μg/mL) were added. All samples were tested in duplicates at each concentration. After incubation at 37° C. for 72 hrs, the feeder cells were removed with 4 mM EDTA, and DNA and RNA was then isolated. The isolated DNA and RNA were analyzed in Southern and Northern Blot gels for HPV-31 specific sequences. Human A431 epithelial cancer cells were used as HPV-uninfected negative control. X-ray films were scanned and optical densities of HPV-31 specific DNA and major mRNA species were integrated.\nDose response curves were established by plotting integrated values against the concentrations of the test compound."}}, "data": [{"compound": "S=C(S)OC1CC2CC1C1CCCC21", "note": "(single isomer, unassigned; (-)) [(−)-Enantiomer 1A, (−)-O-exo/C-exo-tricyclo[5.2.1.0^2,6]-dec-9-yl-xanthic acid]", "values": [{"measurement": "IC50", "setting": "[1]", "result": 15.9, "unit": "µM"}, {"measurement": "IC50", "setting": "[2]", "result": "11.07 ± 0.18", "unit": "µg/mL"}, {"measurement": "inhibition at 32 µg/mL", "setting": "[3]", "result": 37.5, "unit": "%"}]}]}
